Data reported in patent US8124793B2, “Derivatives of ethylene methanedisulfonate as cancer chemotherapeutic agents” (priority 2007, dated 2012).

Tests used:
Assay type in all cases: cell-based
CCRF-CEM = test: NCI screen, growth of human tumor cells: Leukemia CCRF-CEM; settings: CCRF-CEM (Leukemia), 10^−4 molar
How it was run: (§1)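 The NCI screen tests each compound on human cancer cell lines and reports percent growth. Concentrations are given in molar units; the number of data points per compound is sixty at minimum.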

HL-60 (TB) = test: NCI screen, growth of human tumor cells: Leukemia HL-60 (TB); settings: HL-60 (TB) (Leukemia), 10^−4 molar
Protocol: (§2) In the NCI screening process, each compound was tested and described by a minimum of 60 data points. The test data include, but are not limited to the type of cancer, the molar concentration used in the screen, and the percent growth of the cancer. In some cases, NMR and elemental analysis were used for structural assignment.

K562 = test: NCI screen, growth of human tumor cells: Leukemia K562; settings: K562 (Leukemia), 10^−4 molar
How it was run: as §1

MOLT-4 = test: NCI screen, growth of human tumor cells: Leukemia MOLT-4; settings: MOLT-4 (Leukemia), 10^−4 molar
How it was run: as §1

RPMI-8226 = test: NCI screen, growth of human tumor cells: Leukemia RPMI-8226; settings: RPMI-8226 (Leukemia), 10^−4 molar
How it was run: as §1

SR = test: NCI screen, growth of human tumor cells: Leukemia SR; settings: SR
How it was run: as §1

AS49/ATCC = test: NCI screen, growth of human tumor cells: Non-Small Cell Lung AS49/ATCC; settings: AS49/ATCC (Non-Small Cell Lung), 10^−4 molar
Protocol: as §2

EKVX = test: NCI screen, growth of human tumor cells: Non-Small Cell Lung EKVX; settings: EKVX (Non-Small Cell Lung), 10^−4 molar
How it was run: as §1

HOP-62 = test: NCI screen, growth of human tumor cells: Non-Small Cell Lung HOP-62; settings: HOP-62, 10^−4 molar
How it was run: as §1

NCI-H226 = test: NCI screen, growth of human tumor cells: Non-Small Cell Lung NCI-H226; settings: NCI-H226 (Non-Small Cell Lung), 10^−4 molar
How it was run: as §1

NCI-H522 = test: NCI screen, growth of human tumor cells: Non-Small Cell Lung NCI-H522; settings: NCI-H522, 10^−4 molar
How it was run: as §1

NCI-H460 = test: NCI screen, growth of human tumor cells: Non-Small Cell Lung NCI-H460; settings: NCI-H460 (Non-Small Cell Lung), 10^−4 molar
How it was run: as §1

NCI-H322M = test: NCI screen, growth of human tumor cells: Non-Small Cell Lung NCI-H322M; settings: NCI-H322M, 10^−4 molar
Protocol: as §2

NCI-H23 = test: NCI screen, growth of human tumor cells: Non-Small Cell Lung NCI-H23; settings: NCI-H23, 10^−4 molar
How it was run: as §1

HCC-2998 = test: NCI screen, growth of human tumor cells: HCC-2998 (listed under Non-Small Cell Lung); settings: HCC-2998, 10^−4 molar
Protocol: as §2

COLO205 = test: NCI screen, growth of human tumor cells: Colon Cancer COLO205; settings: COLO205, 10^−4 molar
How it was run: as §1

HCT-116 = test: NCI screen, growth of human tumor cells: Colon Cancer HCT-116; settings: HCT-116 (Colon Cancer), 10^−4 molar
How it was run: as §1

HCT-15 = test: NCI screen, growth of human tumor cells: Colon Cancer HCT-15; settings: HCT-15, 10^−4 molar
How it was run: as §1

HT29 = test: NCI screen, growth of human tumor cells: Colon Cancer HT29; settings: HT29 (Colon Cancer), 10^−4 molar
Protocol: as §2

KM12 = test: NCI screen, growth of human tumor cells: Colon Cancer KM12; settings: KM12 (Colon Cancer), 10^−4 molar
How it was run: as §1

SF-268 = test: NCI screen, growth of human tumor cells: CNS Cancer SF-268; settings: SF-268 (CNS Cancer), 10^−4 molar
How it was run: as §1

SF-295 = test: NCI screen, growth of human tumor cells: CNS Cancer SF-295
How it was run: as §1

SF-539 = test: NCI screen, growth of human tumor cells: CNS Cancer SF-539
How it was run: as §1

U-251 = test: NCI screen, growth of human tumor cells: CNS Cancer U-251; settings: U-251 (CNS Cancer), 10^−4 molar
How it was run: as §1

M14 = test: NCI screen, growth of human tumor cells: Melanoma M14; settings: M14, 10^−4 molar
How it was run: as §1

MALME-3M = test: NCI screen, growth of human tumor cells: Melanoma MALME-3M; settings: MALME-3M, 10^−4 molar
How it was run: as §1

SK-MEL-2 = test: NCI screen, growth of human tumor cells: Melanoma SK-MEL-2; settings: SK-MEL-2 (Melanoma), 10^−4 molar
How it was run: as §1

SK-MEL-28 = test: NCI screen, growth of human tumor cells: Melanoma SK-MEL-28; settings: SK-MEL-28, 10^−4 molar
How it was run: as §1

SK-MEL-5 = test: NCI screen, growth of human tumor cells: Melanoma SK-MEL-5; settings: SK-MEL-5, 10^−4 molar
How it was run: as §1

UACC-257 = test: NCI screen, growth of human tumor cells: Melanoma UACC-257; settings: UACC-257, 10^−4 molar
How it was run: as §1

UACC-62 = test: NCI screen, growth of human tumor cells: Melanoma UACC-62
How it was run: as §1

IGROVI = test: NCI screen, growth of human tumor cells: Ovarian Cancer IGROVI; settings: IGROVI (Ovarian Cancer), 10^−4 molar
How it was run: as §1

SK-OV-3 = test: NCI screen, growth of human tumor cells: Ovarian Cancer SK-OV-3; settings: SK-OV-3 (Ovarian Cancer), 10^−4 molar
Protocol: as §2

OVCAR-3 = test: NCI screen, growth of human tumor cells: Ovarian Cancer OVCAR-3; settings: OVCAR-3 (Ovarian Cancer), 10^−4 molar
How it was run: as §1

OVCAR-4 = test: NCI screen, growth of human tumor cells: Ovarian Cancer OVCAR-4; settings: OVCAR-4 (Ovarian Cancer), 10^−4 molar
How it was run: as §1

OVCAR-5 = test: NCI screen, growth of human tumor cells: Ovarian Cancer OVCAR-5; settings: OVCAR-5, 10^−4 molar
How it was run: as §1

786-0 = test: NCI screen, growth of human tumor cells: Renal Cancer 786-0
Protocol: as §2

ACHN = test: NCI screen, growth of human tumor cells: Renal Cancer ACHN; settings: ACHN
How it was run: as §1

RXF-393 = test: NCI screen, growth of human tumor cells: Renal Cancer RXF-393; settings: RXF-393 (Renal Cancer), 10^−4 molar
How it was run: as §1

SN12C = test: NCI screen, growth of human tumor cells: Renal Cancer SN12C; settings: SN12C (Renal Cancer), 10^−4 molar
How it was run: as §1

CAKI-1 = test: NCI screen, growth of human tumor cells: Renal Cancer CAKI-1; settings: CAKI-1 (Renal Cancer), 10^−4 molar
How it was run: as §1

UO-31 = test: NCI screen, growth of human tumor cells: Renal Cancer UO-31; settings: UO-31 (Renal Cancer), 10^−4 molar
How it was run: as §1

DU-145 = test: NCI screen, growth of human tumor cells: Prostate Cancer DU-145; settings: DV-145, 10^−4 molar
How it was run: as §1

MCF 7 = test: NCI screen, growth of human tumor cells: Breast Cancer MCF 7; settings: MCF 7 (Breast Cancer), 10^−4 molar
How it was run: as §1

MCF7/ADR-RES = test: NCI screen, growth of human tumor cells: Breast Cancer MCF7/ADR-RES; settings: MCF7/ADR-RES (Breast Cancer), 10^−4 molar
How it was run: as §1

BT-549 = test: NCI screen, growth of human tumor cells: Breast Cancer BT-549; settings: BT-549, 10^−4 molar
How it was run: as §1

MDA-MB-435 = test: NCI screen, growth of human tumor cells: Breast Cancer MDA-MB-435; settings: MDA-MB-435, 10^−4 molar
How it was run: as §1

human cancer cells = test: NCI screen summary over the cancers tested (negative growth of human cancer cells); settings: cancers with negative growth / cancers tested
Protocol: as §2
The derivatives in the tables are grouped using the same category as in the tables 1-6.

CC1=C(CC2(S(=O)(=O)C(F)(F)F)S(=O)(=O)OCCOS2(=O)=O)C(=O)c2ccccc2C1=O [NSC 720682, ethylene trifluorosulfonyl-(3-methyl-1,4-naphtho-2-quinolyl)-1,1-ethanedisulfonate]
percent of growth of human tumor cells (CCRF-CEM): −5% | percent of growth of human tumor cells (HL-60 (TB)): −22% | percent of growth of human tumor cells (K562): −11% | percent of growth of human tumor cells (MOLT-4): −11% | percent of growth of human tumor cells (RPMI-8226): −4% | % Growth (SR; 10^−4 molar): −14% | % Growth (SR; 10^−5 molar): 30% | percent of growth of human tumor cells (AS49/ATCC): −37% | percent of growth of human tumor cells (EKVX): −36% | % Growth (HOP-62): −96% | percent of growth of human tumor cells (NCI-H226): −45% | % Growth (NCI-H522): −72% | percent of growth of human tumor cells (NCI-H460): −59% | % Growth (NCI-H322M): −97% | % Growth (NCI-H23): −68% | % Growth (HCC-2998): −88% | % Growth (COLO205): −88% | percent of growth of human tumor cells (HCT-116): 19% | % Growth (HCT-15): −72% | percent of growth of human tumor cells (HT29): −43% | percent of growth of human tumor cells (KM12): 20% | percent of growth of human tumor cells (SF-268): 1% | % Growth (SF-295; SF-295, 10^−4 molar): −78% | % Growth (SF-295; SF-295, 10^−5 molar): 53% | % Growth (SF-539; SF-539, 10^−4 molar): −69% | % Growth (SF-539; SF-539, 10^−5 molar): 57% | percent of growth of human tumor cells (U-251): −36% | % Growth (M14): −90% | % Growth (MALME-3M): −89% | percent of growth of human tumor cells (SK-MEL-2): −58% | % Growth (SK-MEL-28): −85% | % Growth (SK-MEL-5): −91% | % Growth (UACC-257): −64% | % Growth (UACC-62; UACC-62, 10^−4 molar): −73% | % Growth (UACC-62; UACC-62, 10^−5 molar): 55% | percent of growth of human tumor cells (IGROVI): −18% | percent of growth of human tumor cells (SK-OV-3): 20% | percent of growth of human tumor cells (OVCAR-3): −42% | percent of growth of human tumor cells (OVCAR-4): −23% | % Growth (OVCAR-5): −87% | % Growth (786-0; 786-0, 10^−4 molar): −20% | % Growth (786-0; 786-0, 10^−5 molar): 49% | % Growth (ACHN; 10^−4 molar): −21% | % Growth (ACHN; 10^−5 molar): 55% | percent of growth of human tumor cells (RXF-393): 24% | percent of growth of human tumor cells (SN12C): −70% | percent of growth of human tumor cells (CAKI-1): 16% | percent of growth of human tumor cells (UO-31): 29% | % Growth (DU-145): −99% | percent of growth of human tumor cells (MCF 7): 1% | percent of growth of human tumor cells (MCF7/ADR-RES): 1% | % Growth (BT-549): −78% | % Growth (MDA-MB-435): −86% | Percentage of cancers showing negative growth cancers tested (human cancer cells; 10^−4 M conc.): 81% | Percentage of cancers showing negative growth cancers tested (human cancer cells; 10^−5 M conc.): 17%
